{"source": "ChEMBL document CHEMBL5390228", "about": "“Unnatural Endotype B PPAPs as Novel Compounds with Activity against Mycobacterium tuberculosis” (J Med Chem, 2023)", "system": "Mycobacterium tuberculosis", "assay": "Antimicrobial activity in INH-resistant Mycobacterium tuberculosis ATCC 35822 infected in human Primary macrophage cells assessed as reduction in intracellular growth of bacteria incubated for 4 days by CFU assay", "assay_type": "functional, organism-based", "conditions": "ATCC 35822, Primary macrophage, 96 h", "data": [{"smiles": "C=CC[C@@]12C[C@H](CC=C(C)C)C(C)(C)[C@@](CC=C)(C(=O)C(C(C)=O)=C1[O-])C2=O.[Na+]", "values": [{"measurement": "IC50", "value": 15.9, "unit": "µM"}]}]}
